Experimental data: paper PMC9542247 (Angewandte Chemie (International Ed. in English), 2022)
Non-standard residues stand in square brackets, D forms with d. Residues, ends and D or L forms follow the SMILES beside them. No end group written: not given here.

System: P450Blt (CYP1251 C3)
Assay: Small scale enzymatic cyclisation
Type: biochemical, Micromonospora sp. MW-13
Settings: for P450Blt-catalysed cyclisation, result in words: small scale enzymatic cyclisation, LCMS; for loss of P450Blt cyclisation activity compared to 1: fold reduction versus 1

Compound	P450Blt-catalysed cyclisation, result in words	further results
MRYWH-OH [compound 8]	almost totally abolished activity	–
MSYLH-OH [compound 5]	–	loss of P450Blt cyclisation activity compared to 1: ≈ 6 fold
fMRYLH-OH [f-1]	did not affect cyclisation	–
MRYLW [compound 24]	very effective	level of cyclisation as fraction of that of 1 (relative to 1): 2/3
MSYDH-OH [compound 7]	no further reduction in cyclisation than for 5 alone	–
MNYLH-OH [compound 6]	–	loss of P450Blt cyclisation activity compared to 1: ≈ 2 fold
CSCC[C@H](N)C(=O)N[C@@H](CCCNC(=N)N)C(=O)N[C@@H](Cc1ccc(O)cc1)C(=O)N[C@@H](CC(C)C)C(=O)N[C@H](Cc1c[nH]cn1)C(=O)O [compound 17] (H-MRYL[dH]-OH)	–	conversion relative to that of 1 (relative to 1): > 10%
RYLH-OH [compound 2]	significantly reduced activity	–
